From ChEMBL document CHEMBL1121530, “Potential carcinostatics. 4. Synthesis and biological properties of erythro- and threo-beta-fluoroaspartic acid and erythro-beta-fluoroasparagine” (J Med Chem, 1980)
Calls of active or inactive are those of the source. No cut-off for these calls is given here.

Assays:
[1] = test system: L5178Y; experiment: Tested in vivo for antileukemic activity in the asparagine dependent L5178Y lymphatic leukemia cells in mice up to intraperitoneal doses 100 mg/kg; NA = no antitumor activity; type: functional, organism-based; parameters: dose 100 mg/kg; settings: Mus musculus
[2] = test system: L5178Y; experiment: Tested in vivo for antileukemic activity in the asparagine dependent L5178Y lymphatic leukemia cells in mice up to intraperitoneal doses 40 mg/kg; NA = no antitumor activity; type: functional, organism-based; parameters: dose 40 mg/kg; settings: Mus musculus

SMILES | Activity [1] | Activity [2]
NC(=O)C(F)C(N)C(=O)O (configuration not stated) | inactive | –
NC(C(=O)O)C(F)C(=O)O (configuration not stated) | – | inactive
